Reference: the NIST ThermoML archive (doi:10.1021/acs.jced.6b00021)
“And” between values parts separate entries of the source, which are not always exact repeats. Equal entries are not always repeated. ± gives the expanded uncertainty stated by the source.

Conditions: Liquid; for viscosity / electrical conductivity: 101.33 kPa; for viscosity: Falling or rolling sphere viscometry; for mass density: 100 kPa, Vibrating tube method; for electrical conductivity: Alternating current cell with electrodes

CCn1cc[n+](C)c1.O=S(=O)([O-])C(F)(F)F [1-ethyl-3-methylimidazolium trifluoromethanesulfonate]
viscosity (268.15 K): 172.2 ± 9.5 mPa·s and 172.4 ± 9.5 mPa·s | mass density (273.15 K): 1407.23 ± 0.72 kg/m3 | electrical conductivity (273.15 K): 0.346 ± 0.014 S/m | viscosity (273.15 K): 130.7 ± 6.5 mPa·s and 130.6 ± 6.5 mPa·s | mass density (278.15 K): 1402.99 ± 0.72 kg/m3 | electrical conductivity (278.15 K): 0.433 ± 0.017 S/m | viscosity (278.15 K): 102.3 ± 4.7 mPa·s and 102 ± 4.7 mPa·s | mass density (283.15 K): 1398.75 ± 0.72 kg/m3 | electrical conductivity (283.15 K): 0.534 ± 0.021 S/m | viscosity (283.15 K): 80.26 ± 3.4 mPa·s and 80.24 ± 3.4 mPa·s | electrical conductivity (288.15 K): 0.647 ± 0.026 S/m | mass density (293.15 K): 1390.28 ± 0.72 kg/m3 and 1390.27 ± 0.72 kg/m3 | electrical conductivity (293.15 K): 0.772 ± 0.031 S/m | viscosity (293.15 K): 52.45 ± 2.1 mPa·s | mass density (298.15 K): 1386.04 ± 0.71 kg/m3 and 1386.06 ± 0.71 kg/m3 | electrical conductivity (298.15 K): 0.915 S/m and 0.91 S/m | viscosity (298.15 K): 43.54 ± 1.8 mPa·s [middle of 4 runs] | viscosity (300.65 K): 39.67 ± 1.6 mPa·s and 39.64 ± 1.6 mPa·s | mass density (303.15 K): 1381.85 ± 0.71 kg/m3 | electrical conductivity (303.15 K): 1.06 ± 0.042 S/m | viscosity (303.15 K): 36.27 ± 1.5 mPa·s | viscosity (305.65 K): 33.3 ± 1.4 mPa·s and 33.29 ± 1.4 mPa·s | viscosity (308.15 K): 30.75 ± 1.3 mPa·s and 30.7 ± 1.2 mPa·s | mass density (313.15 K): 1373.47 ± 0.71 kg/m3 and 1373.45 ± 0.71 kg/m3 | electrical conductivity (313.15 K): 1.42 ± 0.057 S/m | viscosity (313.15 K): 26.21 ± 1.1 mPa·s and 26.2 ± 1.1 mPa·s | mass density (323.15 K): 1365.14 ± 0.71 kg/m3 | electrical conductivity (323.15 K): 1.82 ± 0.073 S/m | viscosity (323.15 K): 19.57 ± 0.8 mPa·s and 19.48 ± 0.8 mPa·s | mass density (333.15 K): 1356.86 ± 0.7 kg/m3 | electrical conductivity (333.15 K): 2.25 ± 0.09 S/m | viscosity (333.15 K): 15.02 ± 0.61 mPa·s | mass density (343.15 K): 1348.64 ± 0.7 kg/m3 | electrical conductivity (343.15 K): 2.76 ± 0.11 S/m | viscosity (343.15 K): 11.78 ± 0.48 mPa·s and 11.73 ± 0.48 mPa·s | viscosity (348.15 K): 10.51 ± 0.43 mPa·s | mass density (353.15 K): 1340.46 ± 0.7 kg/m3 | electrical conductivity (353.15 K): 3.29 ± 0.13 S/m | mass density (363.15 K): 1332.32 ± 0.7 kg/m3

C[N+](C)(C)CCO.O=S(=O)([N-]S(=O)(=O)C(F)(F)F)C(F)(F)F [choline bis(trifluoromethylsulfonyl)imide]
mass density (313.15 K): 1513.41 ± 2.1 kg/m3 | mass density (315.65 K): 1511.12 ± 2.1 kg/m3 | mass density (318.15 K): 1508.82 ± 2.1 kg/m3 | mass density (323.15 K): 1504.27 ± 2 kg/m3 | mass density (328.15 K): 1499.7 ± 2 kg/m3 | mass density (333.15 K): 1495.16 ± 2 kg/m3 | mass density (338.15 K): 1490.66 ± 2 kg/m3 | mass density (343.15 K): 1486.16 ± 2 kg/m3 | mass density (348.15 K): 1481.69 ± 2 kg/m3 | mass density (353.15 K): 1477.22 ± 2 kg/m3 | mass density (358.15 K): 1472.78 ± 2 kg/m3 | mass density (363.15 K): 1468.35 ± 1.9 kg/m3

CCn1cc[n+](C)c1.N#C[B-](C#N)(C#N)C#N [1-ethyl-3-methylimidazolium tetracyanoborate]
viscosity (263.15 K): 111.3 ± 5.2 mPa·s | viscosity (264.05 K): 108.4 ± 5 mPa·s | viscosity (265.65 K): 96.35 ± 4.3 mPa·s and 96.52 ± 4.3 mPa·s | viscosity (268.15 K): 81 ± 3.5 mPa·s [middle of 6 runs] | mass density (273.15 K): 1056.29 ± 0.6 kg/m3 | viscosity (273.15 K): 58.91 ± 2.4 mPa·s and 58.87 ± 2.4 mPa·s and 60.07 ± 2.4 mPa·s | viscosity (278.15 K): 44.77 ± 1.8 mPa·s | mass density (283.15 K): 1048.19 ± 0.6 kg/m3 | viscosity (283.15 K): 34.55 ± 1.4 mPa·s and 34.65 ± 1.4 mPa·s and 34.73 ± 1.4 mPa·s | viscosity (288.15 K): 27.4 ± 1.1 mPa·s and 27.3 ± 1.1 mPa·s and 27.14 ± 1.1 mPa·s | mass density (293.15 K): 1040.2 ± 0.6 kg/m3 | viscosity (293.15 K): 22.35 ± 0.91 mPa·s [middle of 6 runs] | viscosity (296.15 K): 19.62 ± 0.8 mPa·s [middle of 4 runs] | mass density (298.15 K): 1036.25 ± 0.6 kg/m3 | viscosity (298.15 K): 18.51 ± 0.75 mPa·s [middle of 4 runs] | viscosity (300.15 K): 17.16 ± 0.7 mPa·s and 16.93 ± 0.69 mPa·s | mass density (303.15 K): 1032.31 ± 0.6 kg/m3 | viscosity (303.15 K): 15.47 ± 0.63 mPa·s and 15.64 ± 0.64 mPa·s and 15.62 ± 0.63 mPa·s | mass density (313.15 K): 1024.52 ± 0.6 kg/m3 | viscosity (313.15 K): 11.25 ± 0.46 mPa·s [middle of 5 runs] | mass density (323.15 K): 1016.81 ± 0.6 kg/m3 | viscosity (323.15 K): 8.531 ± 0.35 mPa·s and 8.521 ± 0.35 mPa·s and 8.518 ± 0.35 mPa·s | mass density (333.15 K): 1009.19 ± 0.6 kg/m3 | viscosity (333.15 K): 6.68 ± 0.27 mPa·s | viscosity (338.15 K): 5.992 ± 0.24 mPa·s and 6.022 ± 0.24 mPa·s | mass density (343.15 K): 1001.66 ± 0.6 kg/m3 | viscosity (343.15 K): 5.399 ± 0.22 mPa·s and 5.4 ± 0.22 mPa·s and 5.395 ± 0.22 mPa·s | viscosity (348.15 K): 4.921 ± 0.2 mPa·s and 4.92 ± 0.2 mPa·s | mass density (353.15 K): 994.2 ± 0.6 kg/m3 | viscosity (353.15 K): 4.458 ± 0.18 mPa·s and 4.455 ± 0.18 mPa·s and 4.454 ± 0.18 mPa·s | mass density (363.15 K): 986.83 ± 0.6 kg/m3
